For one data set, the system named is KCC2. Nature of the data set: Western blot of KCC2 expression, ipsilateral normalized to contralateral hemisphere, post-ligation. The format is in vivo, mouse. As for the experimental part: Western blot at 3 h and 24 h post-ligation. All animals were anesthetized with chloral hydrate (90 mg/ml; IP) before being transcardially perfused. The whole brains of P7 and P10 pups were harvested at either 3 h or 24 h post-ligation, and were frozen as ipsilateral and contralateral hemisphere. The brains were stored in −80° C. until further use. Homogenized whole brain lysates were suspended in cell lysis buffer with 10% protease/phosphatase inhibitor cocktail. Total protein concentrations were quantified through Bradford Assay (Bio-Rad) at 570 nm wavelength, and the samples were diluted for 50 ug of protein at 20 ul of loading volume for gel electrophoresis.
Samples were run on 4-20% gradient 1.5 mm 15 wells SDS gels (Invitrogen) for 100-120 min with 130V, and were transferred onto nitrocellulose membranes for overnight wet-transfer for minimum of 18 hours at 30V. After the transfer, the nitrocellulose membranes underwent 1 h blocking step in odyssey buffer, before overnight incubation in primary antibodies: rabbit α-KCC2 (1:1000, Millipore; Cat. No. 07-432); rabbit α-NKCC1 (1:500, Millipore, Cat. No. AB3560P); mouse α-actin (1:10000, LI-COR Biosciences, Cat. No. 926-42214). On the next day, nitrocellulose membranes were washed with TBS containing tween detergent, and then were incubated in […] secondaries for 1 h (1:5000 for both goat α-mouse 680LT and goat α-rabbit 800CW, LI-COR Biosciences). Chemiluminescent protein bands were analyzed using the Odyssey infrared imaging system 2.1 (LI-COR Biosciences). The optical density of each protein sample was normalized to the actin bands run on each lane for internal control. The expression levels of the proteins of interest in ipsilateral hemispheres were normalized to the same in contralateral hemispheres for each pup. The human brain was recently shown to express two splice variants of NKCC1 (a and b) and the NKCC1 probe used in this study and all previous studies referenced here can only detect the NKCC1a isoform because the targeted epitope site of this probe overlaps with exon 21 that is spliced in the dominant isoform NKCC1b. A reliable pan-NKCC1 probe is not currently available.
A smaller sample of naïve age-matched controls (n=8, 4 each at P8 and P11, equal sexes) was run with the 24 h WB data (brains harvested at P8 and P11, i.e.; 24 h after P7 and P10 ligations). […] This pilot established that contralateral hemispheres were ideal controls for normalization of KCC2 and NKCC1 expression in ipsilateral injured hemispheres for this study similar to previously reported conclusions in another ischemia model.

For data set [1], the system named is CD1 pups with unilateral carotid ligation (ischemic seizures). To be noted: for latency to the 1st-detected seizure: drug given IP immediately after ligation.
The conditions of data set [2]: adult mouse, 0.5 mg/kg IP, cited from earlier work.
Data set [3] deals with CD1 mice with permanent unilateral carotid-ligation (acute ischemic seizures). Nature of the data set: Video-EEG seizure burden after carotid ligation at P7, P10, P12 with PB and adjunct BTN (Example 2). Format: in vivo, mouse. The settings on record: for effect of adjunct BTN on PB-efficacy: BTN 0.1-0.2 mg/kg IP 2 h post-ligation; for reduction of seizure burden: PB 25 mg/kg IP 1 h after ligation.
Protocol: Experimental design. […] All surgery was performed under isoflurane general anesthesia, and all efforts were made to minimize suffering. All litters of CD1 mice were purchased from Charles River Laboratories Inc. (Wilmington, Mass.). Newly born litters of pups arrived at postnatal 3 or 4 days old, and were allowed to acclimate. […] Ninety two pups from 12 litters were included in the video-EEG study (n=48 male and n=44 female). The susceptibility to ischemic seizures was tested at 3 developmental ages i.e., 7, 10 and 12 days old CD1 pups (n=80 ligated and 12 shams). […] The pups underwent permanent ligation and sham surgeries followed by 3 h of EEG recording each, as described in methods (total pups=92 of which ligates P7=29, P10=24 and P12=27 and sham P7=5, P10=4 and P12=3; see Table 2). From the ligated group of pups (total n=80), the ligated-control pups also underwent 3 h EEG recordings to evaluate natural progression of ischemic seizure burden over the duration of treatment efficacy evaluated in this study (total pups n/n=26/80, P7=8, P10=9 and P12=9). […] Since the severity of stroke-injury and seizure varies between pups, the baseline EEG of each pup served as an important internal control. Additionally, since the exact time-point of onset for ischemia in human neonates is not known and may not be a single massive event, the 1 h of non-treatment also served as an important delay expected in the treatment of neonatal seizures that are detected hours after stroke in humans.
Surgical procedure for ischemic insult and electrode implantation. Animals were anesthetized with 2% isoflurane. The right common carotid artery was permanently double-ligated with 6-0 surgisilk and the outer skin closed with 6-0 monofilament nylon to induce ischemia (i.e.; ischemia was induced by unilateral common carotid ligation alone. Unlike other rat models commonly used for neonatal stroke, no global hypoxia is needed to induce acute ischemic seizures). Since the ligated carotid is not transected in our model, the intact pulsating carotid artery with silk ligatures can lead to reperfusion over time in this model. The constrictive efficacy (which drops cerebral perfusion to 40% or less) of the silk ligatures is known to diminish, due to the loss of their tensile strength in-vivo against the pulsating artery as a function of time. […] The animals were then implanted with three sub-dermal EEG electrodes (1 recording, 1 reference, and 1 ground) on the skull overlying the parietal cortex using bregma as a reference. Scalp wire electrodes made for sub-dermal use in humans (IVES EEG; Model # SWE-L25-MA, USA) were implanted, sub-dermally fixed with adhesive, in the pups. […] In this study, the recording and reference electrodes were implanted less than 1 cm apart. Pups were then allowed to recover from anesthesia in a 36° C. isothermal chamber for 3 h recording of video-EEG (FIG. 12). At the end of the recording session, the pups were returned to the dams after removal of the sub-dermal electrodes and application of local anesthetic medication.
In vivo synchronous video-EEG recording. […] Data acquisition was done using PAL-8400 software with synchronous video capture (Pinnacle Technology Inc.). […] The files were stored in .EDF format and scored in real time using the review and scoring software package.

Another data set concerns HIE seizures. The settings on record: neonates, cited from earlier work.
For data set [4] the following is noted: cited from earlier work.
In another data set the test system is ischemic seizures. Nature of the data set: CLP290 in the neonatal ischemic seizure model, 3 h EEG (Example 3). The settings on record: 20 mg/kg, n=4, vs vehicle (HPCD).

“And” between values parts separate entries of the source, which are not always exact repeats. Equal entries are not always repeated. Where two headings read alike, the source gives them in different places. Bounds are passed on as bounds.

As for `O=C(Nc1ccccc1C(=O)NC1CCCCNC1=O)c1cc2ccccc2s1` (stereo not drawn) [ANA12, N-[2-[[(Hexahydro-2-oxo-1H-azepin-3-yl)amino]carbonyl]phenyl] benzo[b]thiophene-2-carboxamide], the “effect on post-ischemic degradation of KCC2 expression” value with KCC2 (3 h post-ischemia) is given as “underwent degradation of KCC2”; in the data set on KCC2 (P7 and P10, 24 h post-ischemia), “failed to prevent the post-ischemic KCC2 degradation”. Besides, in the data set on KCC2 (P7, 3 h post-ischemia), the “downregulation of KCC2 expression” value is listed as 15-20%. Further, the “KCC2 degradation compared to the contralateral hemisphere” value in the data set on KCC2 (P7, 24 h post-ischemia) is 15-18%; in the data set with KCC2 (P10, 24 h post-ischemia), around 12%. In addition, the “latency to the 1st-detected seizure” value in data set [1] (P7) turned out to be 202.3 ± 38.8 s; in data set [1] (P10), 245.8 ± 39.8 s. Also, the “post-treatment mortality rate vs vehicle (Fisher's exact test)” value in data set [1] (P7 p=0.58, P10 p=1.00) is given as “did not show a statistical significance”. Further, the “anti-seizure effect on EEG seizure burden” value in data set [1] (P7 pups) and in data set [1] (P10 pups) was “did not have any anti-seizure effect” each time. Further, in data set [1] (P7 vs P10, baseline seizure burden), the “age- and sex-dependent seizure susceptibility to ischemic seizures” value is listed as “not altered”. Besides, the brain concentration in data set [2] (0.5 h) is 400 nM; in data set [2] (6 h), 10 nM.
For `CCCCNc1cc(C(=O)O)cc(S(N)(=O)=O)c1Oc1ccccc1` [BTN, bumetanide], the “effect of adjunct BTN on PB-efficacy” value is reported as “did not improve PB-efficacy” in data set [3] (P7), “PB-induced seizure suppression was lost” in data set [3] (P10) and “failed to act as an effective adjuvant” in data set [3] (P12). Besides, in data set [3] (P7, PB 25 mg/kg at 1 h, BTN 0.1-0.2 mg/kg at 2 h post-ligation), the “anti-seizure effect on total time spent seizing on EEG” value is reported as “failed to have any significant anti-seizure effect”. For the same molecule, in data set [3] (any age (P7, P10, P12)), the “electrographic seizure scores after follow-on BTN” value is given as “did not add any significant therapeutic benefit”. The “adjunct anti-seizure effect of BTN given 1 h after PB” value in data set [1] (P10, ANA12+PB treated pups, BTN 0.1-0.2 mg/kg IP, 3rd h) is given as “significantly blunted PB-efficacy by increasing the seizure burden”. Also, in the data set with HIE seizures (clinical trial terminated), the “efficacy for HIE seizures” value is listed as “inefficacy”. Also, the safety finding result in the data set with HIE seizures is “ototoxicity”. Moreover, the half-life (usually how long it takes for the measured level to halve) in data set [4] (rodents) is < 30 min and ~30 min.
Turning to `O=C1N=C(N2CCCCN2)S/C1=C\c1ccc(F)cc1OC(=O)N1CCCC1` [CLP290], the anti-seizure activity alone entry in the data set on ischemic seizures was “can act independently as an anti-seizure agent”.
For the molecule `CCC1(c2ccccc2)C(=O)NC(=O)NC1=O` [PB, phenobarbital], the “reduction of seizure burden” value in data set [3] (P10) came to 61%; in data set [3] (P12), 64%. The “percent PB seizure suppression over baseline” value in data set [1] (P10 pups, ANA12 2.5 mg/kg IP after ligation (or none), PB 25 mg/kg IP at 1 h, 2nd h vs baseline EEG) amounted to 68%. The half-life in data set [4] (immature rodents) was around 900 min.

(Values after patent US10525024B2, “Methods for rescuing phenobarbital-resistance of seizures by ANA-12 or ANA-12 in combination with CLP290” (THE JOHNS HOPKINS UNIVERSITY, priority 2014, dated 2020).)
